The subject of this test is HBV rcDNA. The test is described as follows: HepDE19 assay with bDNA quantitation of HBV rcDNA. The test is classed as cell-based, hepatitis B virus. The procedure, abridged:
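Cytotoxicity (CC50) measured by CellTiter-Glo ATP content in parallel plates, 5,000 cells/well, 4 days. Antiviral EC50 and EC90 derived from HBV rcDNA bDNA levels after 7-day compound exposure (top 25 μM, ½-log 8-point, 0.5% DMSO) of Tet-withdrawn HepDE19 cells at 50,000/well, as % inhibition versus untreated.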

Setting [1] is: HepDE19 cells, Tet-free medium, 7 day-incubation, rcDNA measured by Quantigene 2.0 bDNA assay, top concentration 25 μM; read-out: DE-19 bDNA EC50.
The mark [2] stands for this setting: read-out: DE-19 bDNA EC50; HepDE19 cells, Tet-free medium, 7 day-incubation, rcDNA measured by Quantigene 2.0 bDNA assay, top concentration 25 μM.
[3] abbreviates: Hepatitis B virus, HepDE19, 168 h, HepDE19 cells, Tet-free medium, 7 day-incubation, rcDNA measured by Quantigene 2.0 bDNA assay, top concentration 25 μM; read-out: DE-19 bDNA EC50.

Results on 26 compounds are retold here after US11566002B2, “Substituted tetrahydrocyclopenta[C]pyrroles, substituted dihydropyrrolizines, analogues thereof, and methods using same” (priority 2018, dated 2023).

Like-named read-outs stand apart in the source and are kept apart here.

What is called EC50 is the concentration at which the effect is half-maximal. Regarding `Cn1ncc(COC(=O)NC2CCc3c2cn(C)c3C(=O)Nc2ccc(F)c(Cl)c2)n1` (single isomer, unassigned) [Compound 128, (2-Methyl-2H-1,2,3-triazol-4-yl)methyl (1-((3-chloro-4-fluorophenyl)carbamoyl)-2-methyl-2,4,5,6-tetrahydrocyclopenta[c]pyrrol-4-yl)carbamate], the EC50 under setting [1] was found to be 1700 nM.

In the case of `Cn1ncc(COC(=O)NC2CCc3c2cn(C)c3C(=O)Nc2ccc(F)c(Cl)c2)n1` (single isomer, unassigned) [Compound 129, (2-Methyl-2H-1,2,3-triazol-4-yl)methyl (1-((3-chloro-4-fluorophenyl)carbamoyl)-2-methyl-2,4,5,6-tetrahydrocyclopenta[c]pyrrol-4-yl)carbamate], the EC50 under setting [1] stood at 40 nM.

For the compound `Cc1c2c(c(C(=O)Nc3ccc(F)c(Cl)c3)n1C)CCC2NC(=O)OCc1c[nH]nn1` (single isomer, unassigned) [Compound 130, (1H-1,2,3-Triazol-4-yl)methyl (1-((3-chloro-4-fluorophenyl)carbamoyl)-2,3-dimethyl-2,4,5,6-tetrahydrocyclopenta[c]pyrrol-4-yl)carbamate], the EC50 under setting [1] was found to be 9000 nM.

For `Cc1c2c(c(C(=O)Nc3ccc(F)c(Cl)c3)n1C)CCC2NC(=O)OCc1c[nH]nn1` (single isomer, unassigned) [Compound 131, (1H-1,2,3-Triazol-4-yl)methyl (1-((3-chloro-4-fluorophenyl)carbamoyl)-2,3-dimethyl-2,4,5,6-tetrahydrocyclopenta[c]pyrrol-4-yl)carbamate], the EC50 under setting [1] was determined as 1700 nM.

Turning to `Cn1c(C(=O)Nc2ccc(F)c(Cl)c2)c2c(c1C(F)(F)F)C(NC(=O)OCc1cn[nH]n1)CC2` (single isomer, unassigned) [Compound 132, (2H-1,2,3-Triazol-4-yl)methyl (1-((3-chloro-4-fluorophenyl)carbamoyl)-2-methyl-3-(trifluoromethyl)-2,4,5,6-tetrahydrocyclopenta[c]pyrrol-4-yl)carbamate], the EC50 under setting [1] is 13000 nM.

Take `Cn1c(C(=O)Nc2ccc(F)c(Cl)c2)c2c(c1C(F)(F)F)C(NC(=O)OCc1cn[nH]n1)CC2` (single isomer, unassigned) [Compound 133, (2H-1,2,3-Triazol-4-yl)methyl (1-((3-chloro-4-fluorophenyl)carbamoyl)-2-methyl-3-(trifluoromethyl)-2,4,5,6-tetrahydrocyclopenta[c]pyrrol-4-yl)carbamate]: under setting [1], the concentration for a half-maximal effect (EC50) is 430 nM.

For the compound `Cn1c(Cl)c2c(c1C(=O)Nc1ccc(F)c(Cl)c1)CCCC2NC(=O)OCc1nc[nH]n1` (single isomer, unassigned) [Compound 134, (1H-1,2,4-Triazol-3-yl)methyl (3-chloro-1-((3-chloro-4-fluorophenyl)carbamoyl)-2-methyl-4,5,6,7-tetrahydro-2H-isoindol-4-yl)carbamate], the EC50 under setting [1] worked out at 1900 nM.

On to `Cn1c(Cl)c2c(c1C(=O)Nc1ccc(F)c(Cl)c1)CCCC2NC(=O)OCc1nc[nH]n1` (single isomer, unassigned) [Compound 135, (1H-1,2,4-Triazol-3-yl)methyl (3-chloro-1-((3-chloro-4-fluorophenyl)carbamoyl)-2-methyl-4,5,6,7-tetrahydro-2H-isoindol-4-yl)carbamate], for which the EC50 under setting [1] was 180 nM.

As for `Cn1c(Cl)c2c(c1C(=O)Nc1ccc(F)c(Cl)c1)CCCC2NC(=O)OCc1cn[nH]n1` (single isomer, unassigned) [Compound 136, (2H-1,2,3-Triazol-4-yl)methyl (3-chloro-1-((3-chloro-4-fluorophenyl)carbamoyl)-2-methyl-4,5,6,7-tetrahydro-2H-isoindol-4-yl)carbamate], the EC50 under setting [1] was found to be 1200 nM.

Turning to `Cn1c(Cl)c2c(c1C(=O)Nc1ccc(F)c(Cl)c1)CCCC2NC(=O)OCc1cn[nH]n1` (single isomer, unassigned) [Compound 137, (2H-1,2,3-Triazol-4-yl)methyl (3-chloro-1-((3-chloro-4-fluorophenyl)carbamoyl)-2-methyl-4,5,6,7-tetrahydro-2H-isoindol-4-yl)carbamate], the concentration giving a half-maximal response (EC50) under setting [1] came to 160 nM.

`Cc1n[nH]nc1COC(=O)NC1CCc2c1cn(C)c2C(=O)Nc1ccc(F)c(Cl)c1` (single isomer, unassigned) [Compound 138, (5-Methyl-2H-1,2,3-triazol-4-yl)methyl (1-((3-chloro-4-fluorophenyl)carbamoyl)-2-methyl-2,4,5,6-tetrahydrocyclopenta[c]pyrrol-4-yl)carbamate]: the EC50 under setting [1] was found to be 860 nM.

For the compound `Cc1n[nH]nc1COC(=O)NC1CCc2c1cn(C)c2C(=O)Nc1ccc(F)c(Cl)c1` (single isomer, unassigned) [Compound 139, (5-Methyl-2H-1,2,3-triazol-4-yl)methyl (1-((3-chloro-4-fluorophenyl)carbamoyl)-2-methyl-2,4,5,6-tetrahydrocyclopenta[c]pyrrol-4-yl)carbamate], the EC50 under setting [1] came out at 3600 nM.

Consider `CCc1n[nH]nc1COC(=O)NC1CCc2c1cn(C)c2C(=O)Nc1ccc(F)c(Cl)c1` (single isomer, unassigned) [Compound 140, (5-Ethyl-2H-1,2,3-triazol-4-yl)methyl(1-((3-chloro-4-fluorophenyl)carbamoyl)-2-methyl-2,4,5,6-tetrahydrocyclopenta[c]pyrrol-4-yl)carbamate], for which the EC50 under setting [2] came to 12000 nM.

For the compound `CCc1n[nH]nc1COC(=O)NC1CCc2c1cn(C)c2C(=O)Nc1ccc(F)c(Cl)c1` (single isomer, unassigned) [Compound 141, (5-Ethyl-2H-1,2,3-triazol-4-yl)methyl(1-((3-chloro-4-fluorophenyl)carbamoyl)-2-methyl-2,4,5,6-tetrahydrocyclopenta[c]pyrrol-4-yl)carbamate], under setting [2], the EC50 was 1200 nM.

As to `Cn1cc2c(c1C(=O)Nc1ccc(F)c(Cl)c1)CCC2NC(=O)OCc1nnnn1C` (single isomer, unassigned) [Compound 144, (1-Methyl-1H-tetrazol-5-yl)methyl(1-((3-chloro-4-fluorophenyl)carbamoyl)-2-methyl-2,4,5,6-tetrahydrocyclopenta[c]pyrrol-4-yl)carbamate], the EC50 under setting [2] came out at 60 nM.

In the case of `Cn1cc2c(c1C(=O)Nc1ccc(F)c(Cl)c1)CCC2NC(=O)OCc1nnnn1C` (single isomer, unassigned) [Compound 145, (1-Methyl-1H-tetrazol-5-yl)methyl (1-((3-chloro-4-fluorophenyl)carbamoyl)-2-methyl-2,4,5,6-tetrahydrocyclopenta[c]pyrrol-4-yl)carbamate], under setting [3], the EC50 was 2700 nM.

As to `Cn1cc2c(c1C(=O)Nc1ccc(F)c(Cl)c1)CCC2NC(=O)OCc1n[nH]nc1C1CC1` (single isomer, unassigned) [Compound 146, (5-Cyclopropyl-2H-1,2,3-triazol-4-yl)methyl (1-((3-chloro-4-fluorophenyl)carbamoyl)-2-methyl-2,4,5,6-tetrahydrocyclopenta[c]pyrrol-4-yl)carbamate], under setting [1], the EC50 was found to be 9300 nM.

For the compound `Cn1cc2c(c1C(=O)Nc1ccc(F)c(Cl)c1)CCC2NC(=O)OCc1n[nH]nc1C1CC1` (single isomer, unassigned) [Compound 147, (5-Cyclopropyl-2H-1,2,3-triazol-4-yl)methyl (1-((3-chloro-4-fluorophenyl)carbamoyl)-2-methyl-2,4,5,6-tetrahydrocyclopenta[c]pyrrol-4-yl)carbamate], the EC50 under setting [1] turned out to be 3600 nM.

With `Cn1cc2c(c1C(=O)Nc1ccc(F)c(Cl)c1)CCC2NC(=O)OCc1nn[nH]n1` (single isomer, unassigned) [Compound 149, (2H-Tetrazol-5-yl)methyl(1-((3-chloro-4-fluorophenyl)carbamoyl)-2-methyl-2,4,5,6-tetrahydrocyclopenta[c]pyrrol-4-yl)carbamate], under setting [2], the half-maximal effective concentration (EC50) amounted to 1100 nM.

As to `Cn1cc2c(c1C(=O)Nc1ccc(F)c(Cl)c1)CCC2NC(=O)OCc1nn[nH]n1` (single isomer, unassigned) [Compound 150, (2H-Tetrazol-5-yl)methyl(1-((3-chloro-4-fluorophenyl)carbamoyl)-2-methyl-2,4,5,6-tetrahydrocyclopenta[c]pyrrol-4-yl)carbamate], the EC50 under setting [2] was found to be 6800 nM.

In the case of `Cn1cc2c(c1C(=O)Nc1ccc(F)c(Cl)c1)CCC2NC(=O)OCc1ccccn1` (centres unmarked) [Compound 2, pyridin-2-ylmethyl (1-((3-chloro-4-fluorophenyl)carbamoy1)-2-methyl-2,4,5,6-tetrahydrocyclopenta[c]pyrrol-4-yl)carbamate], the EC50 under setting [1] amounted to 260 nM.

For `Cn1cc2c(c1C(=O)Nc1ccc(F)c(Cl)c1)CCC2NC(=O)OCc1ccccn1` (centres unmarked) [Compound 6], the EC50 under setting [1] was determined as 140 nM.

With `Cn1cc2c(c1C(=O)Nc1ccc(F)c(Cl)c1)CCC2NC(=O)OCc1ccccn1` (centres unmarked) [Compound 7, pyridin-2-ylmethyl(1-((3-chloro-4-fluorophenyl)carbamoy1)-2-methyl-2,4,5,6-tetrahydrocyclopenta[c]pyrrol-4-yl)carbamate], under setting [1], the EC50 came out at 1400 nM.

Regarding `COC(=O)NC1CCc2c1c[nH]c2C(=O)Nc1ccc(F)c(Cl)c1` (centres unmarked) [Compound 9, methyl 1-(3-chloro-4-fluorophenylcarbamoyl)-2,4,5,6-tetrahydrocyclopenta[c]pyrrol-4-ylcarbamate], the EC50 under setting [3] was determined as 3000 nM.

Turning to `CCn1cc2c(c1C(=O)Nc1ccc(F)c(Cl)c1)CCC2NS(=O)(=O)C1CC1` (centres unmarked) [Compound 12, N-(3-Chloro-4-fluorophenyl)-4-(cyclopropanesulfonamido)-2-ethyl-2,4,5,6-tetrahydrocyclopenta[c]pyrrole-1-carboxamide], the EC50 under setting [3] worked out at 260 nM.

Take `CCn1cc2c(c1C(=O)Nc1ccc(F)c(Cl)c1)CCC2NC(=O)C1CC1` (centres unmarked) [Compound 18, N-(3-Chloro-4-fluorophenyl)-4-(cyclopropanecarboxamido)-2-ethyl-2,4,5,6-tetrahydro cyclopenta[c]pyrrole-1-carboxamide]: under setting [3], the EC50 came to 350 nM.
